Experimental findings from US20230219964A1, “ANTIBACTERIAL AND ANTIFUNGAL PLEUROMUTILIN CONJUGATES” (SYDDANSK UNIVERSITET, priority 2020, published 2023) are described below.

The test system of test [1] is Multi-resistant Staphylococcus aureus (MRSA) USA300 cells. Kind of test: MIC in vitro broth micro-dilution assay, MRSA USA300. The class given is cell-based. Conditions: Staphylococcus aureus, lowest concentration to fully inhibit visible growth (OD600); ATCC strain; read-out: in vitro susceptibility (MIC) MRSA USA3000. Here is the method: (§1) Bacterial susceptibility was established through an in vitro cell-based broth micro-dilution assay. To produce accurate and reproducible MIC-values, a procedure was used which follows the guidelines set by the Clinical and Laboratory Standards Institute (CLSI, USA) and the European Committee on Antimicrobial Susceptibility Testing (EUCAST). The micro-dilutions were carried out in 96-well plates, according to FIG. 3, wherein column 1 is a growth control, Columns 2 to 11 are dilutions of 1×, 2×, 4×, 8×, 16×, 32×, 64×, 128×, 256×, 512× respectively, and column 12 is a sterile control. To further increase the reliability of each susceptibility test, inoculation involved the use of three independent overnight cultures (ON1-ON3) thus giving rise to […]. Furthermore, each ON was added to two individual dilution rows, giving rise to […]. The standard inoculum was set to ˜5-10^5 colony-forming units (CFU) mL^−1. This was verified by dilution onto agar plates after each overall run.
(§2) The applied procedure was:
(§3) 1.1 MH or BHI agar plates for dilutions were created, 1 plate per overnight (ON) culture and MH or BHI media. 1.2 Day 1: Preparation of ON cultures of the bacterial strain in question, by inoculation of a single colony in 5 mL of MH or BHI media. Then incubation at 37° C. with aeration for approximately 16-20 hours. Biological triplicates were created by inoculation from 3 different colonies per strain.
(§4) 1.3 Day 2: A 96-well plate with the antibiotic/compound in question was prepared as according to FIG. 3: 1.4 In a 15 mL falcon tube, an appropriate volume of a 1000 μg/mL antibiotic/compound DMSO stock was diluted with MH or BHI media such that a 2× concentration and total volume of 10 mL was achieved. 1.5 A multi-channel pipette was used in the following. 1.6 Column 1 was used for growth control, so no antibiotic/compound was added to that column. 1.7 200 μl of 2× concentration of the antibiotic/compound was added to column 2. Technical duplicates were always created, thus 2 columns per ON culture. 1.8 100 μl of MH or BHI media was added to columns 1, 3-11 and 200 μl of MH or BHI media to column 12. 1.9 100 μl was transferred from column 2 to column 3. The same pipetting tips were used to transfer 100 μL from column 3 to 4. This scheme was repeated until column 11 where 100 μl was discarded after re-suspending. Column 12 was used as a sterile control, so no antibiotic/compound was added to that column. Each transferring involved pipetting up and down 5 to 7 times. 1.10 The plates were fully dried for CFU in the 42° C. incubator, 4× dilutions in triplicates per one plate.
(§5) 1.11 The optical density of bacterial cells in the ON culture was measured at wavelength 600 nm (OD600). Then the ON culture was diluted to an OD600=0.1. 1.12 Then the OD600 was re-measured to make certain that it was between 0.08 and 0.13. 1.13 The prepared 0.1 culture of 1.12 was diluted 100× more by transferring of 100 μl thereof, to 10 ml of MH or BHI media (enough for a 96-well plate). 1.14 Then 200 μl of the 100× dilution in 1.13 was transferred to Eppendorf tubes and kept cold until use. 1.15 100 μl of culture with an OD600 on approximately 0.001 was dispensed to each well of columns 1 to 11. 1.16 The plate was closed. Covered with aluminium foil and small holes were created with a 100-200 μL tip.
(§6) 1.17 The 96-well plate was then incubated at 37° C. with agitation and left for 16-hours.
(§7) 1.18 Verification of standard inoculum: The 100× diluted culture of 1.13 was used to create 10^−1 to 10^−4 dilutions in PBS/0.9% saline (100 μl sample to 900 μl PBS, mix well and continue until 10^−4). 1.19 10 μl of the 10^−2, 10^−3 and 10^−4 dilutions in 1.18 were spotted onto very dry MH or BHI plates in triplicates. 1.20 Then incubated overnight at 37° C. 1.21 The plates were examined manually or by using the plate reader.

The test system of a further test is S. pneumonia cells. The test is described as follows: MIC in vitro broth micro-dilution assay, S. pneumonia. The class given is cell-based, Streptococcus pneumonia. Conditions: Streptococcus pneumoniae; lowest concentration to fully inhibit visible growth (OD600); clinical isolate; read-out: in vitro susceptibility (MIC) S. Pneumonia. As to the method:
as §1, §2, §3, §4, §5, §6, §7

Another test has as its system E. faecalis cells. The test is described as follows: MIC in vitro broth micro-dilution assay, E. faecalis. The format is cell-based, Enterococcus faecalis. Conditions: Enterococcus faecalis; lowest concentration to fully inhibit visible growth (OD600); clinical isolate; read-out: in vitro susceptibility (MIC) E. Faecalis. Here is the method:
as §1, §2, §3, §4, §5, §6, §7
In general terms: Dilution methods test growth across graded concentrations, often in twofold steps.

The test system of test [2] is vancomycin-resistant enterococci (VRE) cells, VRE 5. Kind of test: MIC in vitro broth micro-dilution assay, VRE 5. The format is cell-based. The settings on record: Enterococcus, VRE; lowest concentration to fully inhibit visible growth (OD600); clinical isolate, ampicillin, ciprofloxacin, vancomycin and linezolid resistant; read-out: in vitro susceptibility (MIC) VRE 5. As to the method: as §1, §2, §3, §4, §5, §6, §7

The subject of test [3] is vancomycin-resistant enterococci (VRE) cells, VRE 1. Kind of test: MIC in vitro broth micro-dilution assay, VRE 1. The format is cell-based. Conditions: Enterococcus, VRE; lowest concentration to fully inhibit visible growth (OD600); clinical isolate, ampicillin, ciprofloxacin and vancomycin resistant; read-out: in vitro susceptibility (MIC) VRE 1. As to the method: as §1, §2, §3, §4, §5, §6, §7

Converted amounts (≈) assume the structure as drawn.

For `C=C[C@]1(C)C[C@@H](OC(=O)Cn2cc(-c3ccc(Cn4cnc5c(N6CCNCC6)ncnc54)nc3)nn2)[C@]2(C)[C@H](C)CC[C@]3(CCC(=O)[C@H]32)[C@@H](C)[C@@H]1O` [C10, 22-[4-(6-((6-(piperazin-1-yl)-9H-purin-9-yl)methyl)pyridin-3-yl)-1H-1,2,3-triazol-1-yl]-22-deoxypleuromutilin], the MIC – broadly, the lowest concentration found to suppress growth – was 0.12 to 0.25 µg/mL (≈ 0.166 to 0.346 µM) in test [1]; 0.03 µg/mL (≈ 0.0415 µM) with S. pneumonia cells; 0.03 µg/mL (≈ 0.0415 µM) with E. faecalis cells; 0.12 µg/mL (≈ 0.166 µM) in test [2]; 0.03 µg/mL (≈ 0.0415 µM) in test [3].
As to `C=C[C@]1(C)C[C@@H](OC(=O)Cn2cc(-c3ccc(Cn4cnc5c(N6CCNCC6)ncnc54)cc3)nn2)[C@]2(C)[C@H](C)CC[C@]3(CCC(=O)[C@H]32)[C@@H](C)[C@@H]1O` [C11, 22-[4-(4-((6-(piperazin-1-yl)-9H-purin-9-yl)methyl)phenyl)-1H-1,2,3-triazol-1-yl]-22-deoxypleuromutilin], the MIC in test [1] was 0.25 µg/mL (≈ 0.346 µM); in the test with S. pneumonia cells, 0.12 µg/mL (≈ 0.166 µM); in the test on E. faecalis cells, 0.12 µg/mL (≈ 0.166 µM); in test [2] it was 0.12 µg/mL (≈ 0.166 µM); in test [3], 0.06 µg/mL (≈ 0.0831 µM).
Take `C=C[C@]1(C)C[C@@H](OC(=O)Cn2cc(-c3ccc([C@@H](C)n4cnc5c(N)ncnc54)cc3)nn2)[C@]2(C)[C@H](C)CC[C@]3(CCC(=O)[C@H]32)[C@@H](C)[C@@H]1O` [C12, 22-[4-(4-((R)-1-(6-amino-9H-purin-9-yl)ethyl)phenyl)-1H-1,2,3-triazol-1-yl]-22-deoxypleuromutilin]: the minimum inhibitory concentration (MIC) was determined as 0.12 µg/mL (≈ 0.18 µM) in test [1]; 0.25 µg/mL (≈ 0.375 µM) in the test with S. pneumonia cells; 0.25 µg/mL (≈ 0.375 µM) with E. faecalis cells; 0.25 µg/mL (≈ 0.375 µM) in test [2]; 0.25 µg/mL (≈ 0.375 µM) in test [3].
As for `C=C[C@]1(C)C[C@@H](OC(=O)Cn2cc(-c3ccc([C@@H](C)n4cnc5c(N6CCNCC6)ncnc54)cc3)nn2)[C@]2(C)[C@H](C)CC[C@]3(CCC(=O)[C@H]32)[C@@H](C)[C@@H]1O` [C13, 22-[4-(4-((R)-1-(6-(piperazin-1-yl)-9H-purin-9-yl)ethyl)phenyl)-1H-1,2,3-triazol-1-yl]-22-deoxypleuromutilin], the MIC in test [1] was 0.5 µg/mL (≈ 0.679 µM); in the test on S. pneumonia cells, 0.25 µg/mL (≈ 0.34 µM); in the test with E. faecalis cells it was 0.25 µg/mL (≈ 0.34 µM); in test [2], 0.12 to 0.25 µg/mL (≈ 0.163 to 0.34 µM); in test [3], 0.25 µg/mL (≈ 0.34 µM).
Regarding `C=C[C@]1(C)C[C@@H](OC(=O)Cn2cc(-c3cccc(NC(=O)c4ccc(OC)cc4)c3)nn2)[C@]2(C)[C@H](C)CC[C@]3(CCC(=O)[C@H]32)[C@@H](C)[C@@H]1O` [C15, 22-[4-(3-(4-methoxybenzamido)phenyl)-1,2,3-triazole-1-yl]-22-deoxypleuromutilin], the minimum inhibitory concentration (MIC) in test [1] amounted to 0.12 µg/mL (≈ 0.183 µM); in the test with S. pneumonia cells, 0.25 µg/mL (≈ 0.382 µM); with E. faecalis cells, 0.25 µg/mL (≈ 0.382 µM); in test [2], 0.25 µg/mL (≈ 0.382 µM); in test [3], 0.12 µg/mL (≈ 0.183 µM).
Turning to `C=C[C@]1(C)C[C@@H](OC(=O)Cn2cc(-c3cccc(Nc4ncnc5[nH]cnc45)c3)nn2)[C@]2(C)[C@H](C)CC[C@]3(CCC(=O)[C@H]32)[C@@H](C)[C@@H]1O` [C18, 22-[4-(3-((9H-purin-6-yl)amino)phenyl)-1,2,3-triazole-1-yl]-22-deoxypleuromutilin], the MIC stood at 0.06 µg/mL (≈ 0.0939 µM) in test [1]; 0.5 µg/mL (≈ 0.783 µM) with S. pneumonia cells; 0.5 µg/mL (≈ 0.783 µM) in the test on E. faecalis cells; 0.25 µg/mL (≈ 0.391 µM) in test [2]; 0.25 µg/mL (≈ 0.391 µM) in test [3].
Take `C=C[C@]1(C)C[C@@H](OC(=O)Cn2cc(-c3cc(C#N)ccc3O)nn2)[C@]2(C)[C@H](C)CC[C@]3(CCC(=O)[C@H]32)[C@@H](C)[C@@H]1O` [C19, 22-[4-(5-cyano-2-hydroxyphenyl)-1H-1,2,3-triazol-1-yl]-22-deoxypleuromutilin]: the MIC in test [1] came to 0.25 µg/mL (≈ 0.457 µM); in the test on S. pneumonia cells it was 4 µg/mL (≈ 7.32 µM); in the test with E. faecalis cells, 2 µg/mL (≈ 3.66 µM); in test [2], 1 µg/mL (≈ 1.83 µM); in test [3], 1 µg/mL (≈ 1.83 µM).
